Experimental findings from patent US8889712B2, “IAP antagonists” (Bristol-Myers Squibb Company, priority 2012, dated 2014) are described below.

As a reminder, the IC50 is the concentration needed to halve the response being measured.

Each structure is given as a SMILES string. Where two headings read alike, the source gives them in different places.

The target of one assay is T1, XIAP BIR2-3 (Homo sapiens, UniProt P98170, C202A/C213G).
T1 construct: His-BIR2-3 (125-356, C202A/C213G, XIAP)
Briefly: XIAP-BIR2-3 dimeric SMAC Peptide Homogeneous Time Resolved Fluorescence (HTRF) Assay. The class given is binding. On the procedure: B. […] Assays were performed in black, flat-bottom, 384-well plates. […] Compounds were dissolved at 3 mM in dimethylsulfoxide (DMSO) and evaluated at eleven serially diluted concentrations. IC50 and Ki values were derived by non-linear regression analysis.
In general terms: In TR-FRET formats the signal depends on donor and acceptor labels being close together.

The target in the next assay is T2, XIAP BIR3 (Homo sapiens, UniProt P98170).
T2 construct: His-BIR3 (241-356, XIAP)
Briefly: XIAP-BIR3/SMAC Homogeneous Time Resolved Fluorescence (HTRF) Assay. The class given is binding. An outline of the steps: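 Competition HTRF between XIAP-BIR3 and SMAC; reaction 60 min at room temperature, then anti-6×His-terbium Fab detection for a further 30 min.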

Setting [1] is: 0.5 nM N-His-BIR2-3 (125-356, C202A/C213G, XIAP), 20 nM fluorescein labeled dimeric SMAC peptide, HTRF signal, read-out: XIAP BIR2-3 IC50.
Where [2] appears, read: 1 nM N-His-BIR3 (241-356, XIAP), 5 nM fluorescein labeled SMAC peptide, HTRF signal, read-out: XIAP BIR3 IC50.

T2 sequence (P98170 241-356): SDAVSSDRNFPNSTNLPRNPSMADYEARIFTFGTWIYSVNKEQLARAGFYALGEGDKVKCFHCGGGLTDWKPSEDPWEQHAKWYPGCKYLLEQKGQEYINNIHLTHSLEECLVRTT
T1 sequence (P98170 125-356 C202A/C213G): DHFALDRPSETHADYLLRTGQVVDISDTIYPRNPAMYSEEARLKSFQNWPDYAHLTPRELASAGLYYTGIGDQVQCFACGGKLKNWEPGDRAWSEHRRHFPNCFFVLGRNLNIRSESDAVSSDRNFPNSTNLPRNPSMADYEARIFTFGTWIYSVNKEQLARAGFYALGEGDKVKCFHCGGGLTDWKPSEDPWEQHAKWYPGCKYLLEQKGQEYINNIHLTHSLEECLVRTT

On to `CN[C@@H](C)C(=O)N[C@H](C(=O)N1C[C@@H](c2ccc3c(c2)CN(C(=O)[C@@H](NC(=O)[C@H](C)NC)C(C)(C)C)[C@H](C(=O)N[C@@H]2CCCc4ccccc42)C3)C[C@H]1C(=O)N[C@@H](Cc1ccccc1)C(=O)NCCC(C)C)C(C)(C)C` [Example 69, (S)-2-((S)-3,3-Dimethyl-2-((S)-2-(methylamino)propanamido)butanoyl)-7-((3R,5S)-1-((S)-3,3-dimethyl-2-((S)-2-(methylamino)propanamido)butanoyl)-5-(((S)-1-(isopentylamino)-1-oxo-3-phenylpropan-2-yl)carbamoyl)pyrrolidin-3-yl)-N-((R)-1,2,3,4-tetrahydronaphthalen-1-yl)-1,2,3,4-tetrahydroisoquinoline-3-carboxamide], for which the IC50 came out at 1.5 nM at XIAP BIR2-3 (setting [1]) and 8.6 nM on XIAP BIR3 (setting [2]).

`CN[C@@H](C)C(=O)N[C@H](C(=O)N1Cc2cc([C@H]3C[C@@H](C(=O)N[C@@H]4CCCc5ccccc54)N(C(=O)[C@@H](NC(=O)[C@H](C)NC)C(C)(C)C)C3)ccc2C[C@H]1C(=O)N[C@@H](Cc1ccccc1)C(=O)N1CCOCC1)C(C)(C)C` [Example 43, (S)-2-((S)-3,3-Dimethyl-2-((S)-2-(methylamino)propanamido)butanoyl)-7-((3R,5S)-1-((S)-3,3-dimethyl-2-((S)-2-(methylamino)propanamido)butanoyl)-5-(((R)-1,2,3,4-tetrahydronaphthalen-1-yl)carbamoyl)pyrrolidin-3-yl)-N—((S)-1-morpholino-1-oxo-3-phenylpropan-2-yl)-1,2,3,4-tetrahydroisoquinoline-3-carboxamide]: the figures for the IC50 on XIAP BIR2-3 (setting [1]) and at XIAP BIR3 (setting [2]) were 1.3 nM and 2 nM, respectively.

In the case of `CN[C@@H](C)C(=O)N[C@H](C(=O)N1C[C@@H](c2ccc3c(c2)CN(C(=O)[C@@H](NC(=O)[C@H](C)NC)C(C)(C)C)[C@H](C(=O)N[C@@H]2CCCc4ccccc42)C3)C[C@H]1C(=O)N[C@@H](Cc1ccccc1)C(=O)Nc1nncs1)C(C)(C)C` [Example 52, (S)-7-((3R,5S)-5-(((S)-1-((1,3,4-Thiadiazol-2-yl)amino)-1-oxo-3-phenylpropan-2-yl)carbamoyl)-1-((S)-3,3-dimethyl-2-((S)-2-(methylamino)propanamido)butanoyl)pyrrolidin-3-yl)-2-((S)-3,3-dimethyl-2-((S)-2-(methylamino)propanamido)butanoyl)-N-((R)-1,2,3,4-tetrahydronaphthalen-1-yl)-1,2,3,4-tetrahydroisoquinoline-3-carboxamide], the IC50 at XIAP BIR2-3 (setting [1]) was found to be 1.2 nM; on XIAP BIR3 (setting [2]), 3.4 nM.

Consider `CCC(CC)[C@H](NC(=O)[C@H](CC)NC)C(=O)N1Cc2cc(C(=O)N[C@H]3C[C@@H](C(=O)N[C@@H]4CCCc5ccccc54)N(C(=O)[C@@H](NC(=O)[C@H](C)NC)C(C)(C)C)C3)ccc2C[C@H]1C(=O)N[C@@H]1CCCc2ccccc21` [Example 19, (S)-N^7-((3S,5S)-1-((S)-3,3-Dimethyl-2-((S)-2-(methylamino)propanamido)butanoyl)-5-(((R)-1,2,3,4-tetrahydronaphthalen-1-yl)carbamoyl)pyrrolidin-3-yl)-2-((S)-3-ethyl-2-((S)-2-(methylamino)butanamido)pentanoyl)-N^3-((R)-1,2,3,4-tetrahydronaphthalen-1-yl)-1,2,3,4-tetrahydroisoquinoline-3,7-dicarboxamide], for which the results for the IC50 on XIAP BIR2-3 (setting [1]) and at XIAP BIR3 (setting [2]) were 2 nM and 7 nM, respectively.

On to `CN[C@@H](C)C(=O)N[C@H](C(=O)N1Cc2cc([C@H]3C[C@@H](C(=O)N[C@@H](Cc4ccc5ccccc5c4)C(=O)O)N(C(=O)[C@@H](NC(=O)[C@H](C)NC)C(C)(C)C)C3)ccc2C[C@H]1C(=O)N[C@@H](Cc1ccc2ccccc2c1)C(=O)O)C(C)(C)C` [Example 83, (S)-2-((S)-7-((3R,5S)-5-(((S)-1-Carboxy-2-(naphthalen-2-yl)ethyl)carbamoyl)-1-((S)-3,3-dimethyl-2-((S)-2-(methylamino)propanamido)butanoyl)pyrrolidin-3-yl)-2-((S)-3,3-dimethyl-2-((S)-2-(methylamino)propanamido)butanoyl)-1,2,3,4-tetrahydroisoquinoline-3-carboxamido)-3-(naphthalen-2-yl)propanoic acid], for which the IC50 was 26.2 nM on XIAP BIR2-3 (setting [1]) and 19.2 nM on XIAP BIR3 (setting [2]).

Turning to `CN[C@@H](C)C(=O)N[C@H](C(=O)N1Cc2cc([C@H]3C[C@@H](C(=O)N[C@H](COC)Cc4ccccc4)N(C(=O)[C@@H](NC(=O)[C@H](C)NC)C(C)(C)C)C3)ccc2C[C@H]1C(=O)N[C@H](COC)Cc1ccccc1)C(C)(C)C` [Example 84, (S)-2-((S)-3,3-Dimethyl-2-((S)-2-(methylamino)propanamido)butanoyl)-7-((3R,5S)-1-((S)-3,3-dimethyl-2-((S)-2-(methylamino)propanamido)butanoyl)-5-(((S)-1-methoxy-3-phenylpropan-2-yl)carbamoyl)pyrrolidin-3-yl)-N-((S)-1-methoxy-3-phenylpropan-2-yl)-1,2,3,4-tetrahydroisoquinoline-3-carboxamide], the IC50 is 8.1 nM on XIAP BIR2-3 (setting [1]) and 31.4 nM at XIAP BIR3 (setting [2]).

For the molecule `CCC(CC)[C@H](NC(=O)[C@H](CC)NC)C(=O)N1C[C@@H](NC(=O)c2ccc3c(c2)CN(C(=O)[C@@H](NC(=O)[C@H](C)NC)C(C)(C)C)[C@H](C(=O)N[C@@H]2CCCc4ccccc42)C3)C[C@H]1C(=O)N[C@@H]1CCCc2ccccc21` [Example 16, (S)-2-((S)-3,3-Dimethyl-2-((S)-2-(methylamino)propanamido)butanoyl)-N^7-((3S,5S)-1-((S)-3-ethyl-2-((S)-2-(methylamino)butanamido)pentanoyl)-5-(((R)-1,2,3,4-tetrahydronaphthalen-1-yl)carbamoyl)pyrrolidin-3-yl)-N^3-((R)-1,2,3,4-tetrahydronaphthalen-1-yl)-1,2,3,4-tetrahydroisoquinoline-3,7-dicarboxamide], the IC50 was 10 nM on XIAP BIR2-3 (setting [1]) and 19 nM on XIAP BIR3 (setting [2]).

In the case of `CN[C@@H](C)C(=O)N[C@H](C(=O)N1C[C@@H](c2ccc3c(c2)CN(C(=O)[C@@H](NC(=O)[C@H](C)NC)C(C)(C)C)[C@H](C(=O)N[C@@H]2CCCc4ccccc42)C3)C[C@H]1C(=O)N[C@@H](Cc1ccccc1)C(=O)Nc1ccccc1)C(C)(C)C` [Example 68, (S)-2-((S)-3,3-Dimethyl-2-((S)-2-(methylamino)propanamido)butanoyl)-7-((3R,5S)-1-((S)-3,3-dimethyl-2-((S)-2-(methylamino)propanamido)butanoyl)-5-(((S)-1-oxo-3-phenyl-1-(phenylamino)propan-2-yl)carbamoyl)pyrrolidin-3-yl)-N-((R)-1,2,3,4-tetrahydronaphthalen-1-yl)-1,2,3,4-tetrahydroisoquinoline-3-carboxamide], the IC50 at XIAP BIR2-3 came out at 1.3 nM; against XIAP BIR3, 4.9 nM.

Regarding `CN[C@@H](C)C(=O)N[C@H](C(=O)N1Cc2cc([C@H]3C[C@@H](C(=O)N[C@@H](Cc4ccccc4)C(=O)OC)N(C(=O)[C@@H](NC(=O)[C@H](C)NC)C(C)(C)C)C3)ccc2C[C@H]1C(=O)N[C@@H](Cc1ccccc1)C(=O)OC)C(C)(C)C` [Example 85, (S)-Methyl 2-((2S,4R)-1-((S)-3,3-dimethyl-2-((S)-2-(methylamino)propanamido)butanoyl)-4-((S)-2-((S)-3,3-dimethyl-2-((S)-2-(methylamino)propanamido)butanoyl)-3-(((S)-1-methoxy-1-oxo-3-phenylpropan-2-yl)carbamoyl)-1,2,3,4-tetrahydroisoquinolin-7-yl)pyrrolidine-2-carboxamido)-3-phenylpropanoate], the IC50 on XIAP BIR2-3 came to 6.2 nM; against XIAP BIR3, 14.8 nM.

With `CCC(CC)[C@H](NC(=O)[C@H](C)NC)C(=O)N1Cc2cc(C(=O)N[C@H]3C[C@@H](C(=O)N[C@@H]4CCCc5ccccc54)N(C(=O)[C@@H](NC(=O)[C@H](C)NC)C(C)(C)C)C3)ccc2C[C@H]1C(=O)N[C@@H]1CCCc2ccccc21` [Example 8, (S)-N^7-((3S,5S)-1-((S)-3,3-Dimethyl-2-((S)-2-(methylamino)propanamido)butanoyl)-5-(((R)-1,2,3,4-tetrahydronaphthalen-1-yl)carbamoyl)pyrrolidin-3-yl)-2-((S)-3-ethyl-2-((S)-2-(methylamino)propanamido)pentanoyl)-N^3-((R)-1,2,3,4-tetrahydronaphthalen-1-yl)-1,2,3,4-tetrahydroisoquinoline-3,7-dicarboxamide], the IC50 at XIAP BIR2-3 (setting [1]) worked out at 2 nM; at XIAP BIR3 (setting [2]), 11 nM.

Consider `CN[C@@H](C)C(=O)N[C@H](C(=O)N1Cc2cc([C@H]3C[C@@H](C(=O)N[C@@H]4CCCc5ccccc54)N(C(=O)[C@@H](NC(=O)[C@H](C)NC)C(C)(C)C)C3)ccc2C[C@H]1C(=O)N[C@@H]1CCCc2ccccc21)C(C)(C)C` [Example 22, (S)-2-((S)-3,3-Dimethyl-2-((S)-2-(methylamino)propanamido)butanoyl)-7-((3R,5S)-1-((S)-3,3-dimethyl-2-((S)-2-(methylamino)propanamido)butanoyl)-5-(((R)-1,2,3,4-tetrahydronaphthalen-1-yl)carbamoyl)pyrrolidin-3-yl)-N—((R)-1,2,3,4-tetrahydronaphthalen-1-yl)-1,2,3,4-tetrahydroisoquinoline-3-carboxamide], for which the IC50 on XIAP BIR2-3 was 1 nM; against XIAP BIR3, 2 nM.
